Data set [1] concerns estrogen biosynthesis. The note with it: Endocrinology 92, 866 (1973); Endocrinology 100, 1684 (1977); cited from earlier work.
Data set [2] in a line: Polarity by thin layer chromatography. The class given is physicochemical. The conditions noted are these: compared with 4-acetate-4-A.
Data set [3] is described as follows: Release of compound from skin implant in rat studies. It counts as in vivo.
Data set [4] has as its system estrogen biosynthesis. The data set can be described thus: In vitro inhibition of estrogen biosynthesis. It counts as biochemical.
The test system of data set [5] is Estrogen-dependent mammary tumors. The data set can be described thus: In vivo effect on DMBA-induced estrogen-dependent mammary tumors in rats. Further details: species or system rat. The note with it: after 4 weeks, wafer with 150 mg plus sc 2.5 mg/100 g twice daily. As for the experimental part:
Estrogen-dependent mammary tumors where induced in rats with DMBA. Prior to treatment the 7 sample group rats had 23 tumors; the 6 control group rats had 17 tumors. During the initial treatment period the number of tumors increased to 28 for the sample group, 24 for the control group.
The sample group was treated with implanted wafers containing 0.5 g silastic and 150 mg 4-acetate-4-A. The sample group was also treated twice daily for 4 weeks with sc injections of 4-acetate-4-A (2.5 mg/100 g animal) in a suspending vehicle. The control was treated the same except that 4-acetate-4-A was omitted from the wafers and the injection.

The test system of a further data set is mating in rats. The experiment in a line: In vivo effect on mating in rats (silastic wafer implant). Further details: species or system rat. The conditions noted are these: 8 female rats. As for the experimental part:
Female rats showing at least 2 consecutive 4-day cycles were used. On the day of diestrus I, a silastic wafer, was inserted under the dorsal skin of each rat. The wafer, about 25 mm in diameter and 1 mm thick, was prepared by polymerizing 0.5 g of Corning medical grade Silastic 382 with 75 mg 4-acetate-4-A, using stannous octoate catalyst. Each female was housed with 2 fertile males until mating occurred. Control animals were treated with same except that 4-acetate-4-A was omitted from the wafer.

Data set [6] has as its system implantation in mated rats. The data set can be described thus: In vivo effect on implantation in mated rats. On the set-up: species or system rat. The conditions noted are these: 7 mated rats; 100 mg/kg daily by injection from Day 2 of pregnancy. As for the experimental part:
Injections of 4-acetate-4-A in a suspending vehicle were begun at 0800 hr on Day 2 of pregnancy, and repeated thereafter at […], and at 2400 hr as 2/6 daily dose. The daily does was 100 mg of 4-acetate-4-A per kg of body weight. Control animals were treated the same except that only the suspending vehicle was injected.

Data set [7] deals with estrogen biosynthesis. The data set can be described thus: In vivo inhibition of estrogen biosynthesis. Further details: species or system rat.

These results are taken from patent US4235893A, “Ester derivatives of 4-hydroxy-4-androstene-3,17-dione and a method for inhibiting estrogen biosynthesis” (priority 1978, dated 1980).

Turning to `C[C@]12CCC(=O)C=C1C(=O)C[C@@H]1[C@@H]2CC[C@]2(C)C(=O)CC[C@@H]12` (stereo in doubt) [4-androstene-3,6,17-trione], the “inhibition of estrogen biosynthesis (literature)” value (from here on “inhibition”) in the data set on estrogen biosynthesis [1] is listed as “effective inhibitors of estrogen biosynthesis”.

As to `C[C@]12CCC(=O)C(O)=C1CC[C@@H]1[C@@H]2CC[C@]2(C)C(=O)CC[C@@H]12` [4-OH-4-A, 4-hydroxy-4-androstene-3,17-dione], the “polarity (thin layer chromatography)” value in data set [2] is recorded as “less polar than 4-acetate-4-A”. In addition, in data set [3], the “diffusion / release from skin implant” value is recorded as “does not diffuse as well from the implant”. The “inhibition” value in the data set with estrogen biosynthesis [1] was “effective inhibitor of estrogen biosynthesis”.

Regarding `C[C@]12C=CC(=O)C=C1C=C[C@@H]1[C@@H]2CC[C@]2(C)C(=O)CC[C@@H]12` [1,4,6-androstatriene-3,17-dione], the “inhibition” value in the data set with estrogen biosynthesis [1] is recorded as “effective inhibitors of estrogen biosynthesis”.

On to `CCCCCCC(=O)OC1=C2CCC3C4CCC(=O)C4(C)CCC3C2(C)CCC1=O` (stereo not shown) [4-heptanoate-4-A], for which, in the data set with estrogen biosynthesis [4], the “ability to inhibit estrogen biosynthesis (in vitro)” value is reported as “This expectation has been borne out”.

As for `CC(=O)OC1=C2CCC3C4CCC(=O)C4(C)CCC3C2(C)CCC1=O` (stereo not shown) [4-acetate-4-A], the tumors completely regressed in data set [5] amounted to 64%. Further, the “tumors regressed to less than 1/2 their pretreatment size” value in data set [5] (in addition to those completely regressed) stood at 32%. Also, in the data set with mating in rats (1st day, silastic wafer with 75 mg 4-acetate-4-A under dorsal skin), the “Number of animals mating on a given day: 1st” value amounted to 0. The “Number of animals mating on a given day: 6th” value in the data set on mating in rats (6th day, silastic wafer with 75 mg) is given as 2. Besides, the “Number of animals mating on a given day: 7th” value with mating in rats (7th day, silastic wafer with 75 mg) turned out to be 2. For the same compound, the “Number of animals mating on a given day: 15th day” value in the data set on mating in rats (15th day, silastic wafer with 75 mg) is 3. Besides, the “Number of animals mating on a given day: 2d” value with mating in rats (2d day, silastic wafer with 75 mg) is recorded as 1. The “diffusion / release from skin implant” value in data set [3] was “continuous, uniform release”. Further, in data set [6], the Animals without implants turned out to be 4, the “Average number of normal-sized implants/animal” value came out at 1.7, the “Average number of small (<2.4 mm) implants/animal” value is 1.4 and the “Number of animals affected by treatment” value is on record as 7. Besides, in the data set on estrogen biosynthesis [7] (in vivo rat studies), the ovarian estrogen secretion entry is listed as “lower ovarian estrogen secretion”.

For `C[C@]12CC[C@H]3[C@@H](CCC4=CC(=O)CC[C@@H]43)[C@@H]1CCC2=O` [4-estrene-3,17-dione], in the data set on estrogen biosynthesis [1], the “inhibition” value was “effective inhibitors of estrogen biosynthesis”.

Regarding `CC12CCC3C(CCC4=C(OC(=O)CCC(=O)O)C(=O)CCC43C)C1CCC2=O` (stereo not shown) [4-hemisuccinate-4-A], in the data set with estrogen biosynthesis [4], the “ability to inhibit estrogen biosynthesis (in vitro)” value was “marked ability to inhibit estrogen biosynthesis”. In addition, the “ability to inhibit estrogen biosynthesis (in vivo)” value with estrogen biosynthesis [7] (in vivo) is reported as “marked ability to inhibit estrogen biosynthesis”.
